Entries after “also recorded” stand apart in the source; their conditions may differ.
Columns and labels:
[1] = parameters: method as in Pietrzik et al., 2000 unpublished data; details: single equimolar dose; 23 women; mean (SD); ref Pietrzik et al., 2000 unpublished data; cited from earlier work
[2] = Indirect comparison of AUCs of plasma (6S)-5-Methyl-THF between the 2019 and 2009 studies; details: female, human, in vivo, 451 µg
Description: (§1) We used individual data from the two studies to calculate the AUC0–8 h of plasma (6S)-5-Methyl-THF. […] We extrapolated plasma concentrations of (6S)-5-Methyl-THF for the missing time points in the corresponding studies by calculating the mean of the concentrations at the two neighboring time points (=before and after the missing concentrations). […] The incremental AUCs of plasma (6S)-5-Methyl-THF were calculated and were expressed as nmol/L*h.

[3] = 2009 pharmacokinetic study (Prinz-Langenohl et al.): plasma (6S)-5-Methyl-THF by LC-MS-MS after a single oral dose in women; details: AUC0-8h of plasma (6S)-5-Methyl-THF; individual ratios; mean (SD)
Description: Plasma concentrations of (6S)-5-Methyl-THF were selectively measured in both studies.
as §1
The data analyses were conducted using individual data from the 24 subjects in the present pharmacokinetic study and 21 women (3 women were excluded due to implausible results) from the study of Prinz-Langenohl et al. [13].

clinical = details: both, human, in vivo
Description: (§2) The label carried a random ID number and the kinetic day 1 and day 2.
(§3) The randomization was carried out on kinetic day 1 by means of consecutive numbering and was stratified by sex. On the kinetic days, a permanent venous catheter was inserted in the morning. Blood (8 mL) was collected under fasting conditions (at t0) into EDTA-K^+-containing tubes. […] The study product (1 capsule) was administered with 150 mL water by the study personnel to ensure compliance. A folate-free protein drink (Scandishake® Mix, Nutricia GmbH, Erlangen, Germany) was dissolved in water and served at 1 h, 3 h and 6 h after the product intake. The drink provided 430 kcal per serving. On each kinetic day, 9 blood samples were collected between t0 and t8 h (8 mL each). The diary records including documentation of adverse events were returned during the last blood collection session after 8 h of the intake. After a washout period of 2 weeks (only two participants returned at 11 and 17 days) and during the second study visit (kinetic day 2), the other study compound was administered following exactly the same procedure.
(§4) Plasma total folate levels were measured on the kinetic days by using Cobas autoanalyser (Elecsys®, Roche, Mannheim, Germany) at the Department of Clinical Chemistry, Saarland University Hospital, Germany. The CV% of the total folate assay was <6%. All plasma samples collected from the same subject (18 samples on both study visits) were prepared and measured in the same run. All blood samples were primary aliquots frozen at −70 °C for no longer than 3 months.

[4] = rated as unrelated to the study product
Description: On the kinetic days, a permanent venous catheter was inserted in the morning. Blood (8 mL) was collected under fasting conditions (at t0) into EDTA-K^+-containing tubes. […] The study product (1 capsule) was administered with 150 mL water by the study personnel to ensure compliance. […] On each kinetic day, 9 blood samples were collected between t0 and t8 h (8 mL each). The diary records including documentation of adverse events were returned during the last blood collection session after 8 h of the intake.

[5] = Pharmacokinetic study (present, 2019): plasma unmetabolized folic acid by UPLC-MS/MS after a single oral dose; details: over 8 h; limit of detection 0.20 nmol/L
Description: as §2, §3, §4

[6] = Pharmacokinetic study (present, 2019): plasma (6S)-5-Methyl-THF by UPLC-MS/MS after a single oral dose
Description: Both folate compounds were provided in odorless gelatin capsules of identical appearance (Apotheke Roter Ochsen AG, Schaffhausen, Switzerland). The label carried a random ID number and the kinetic day 1 and day 2.
The randomization was carried out on kinetic day 1 by means of consecutive numbering and was stratified by sex. On the kinetic days, a permanent venous catheter was inserted in the morning. Blood (8 mL) was collected under fasting conditions (at t0) into EDTA-K^+-containing tubes. […] The study product (1 capsule) was administered with 150 mL water by the study personnel to ensure compliance. A folate-free protein drink (Scandishake® Mix, Nutricia GmbH, Erlangen, Germany) was dissolved in water and served at 1 h, 3 h and 6 h after the product intake. The drink provided 430 kcal per serving. On each kinetic day, 9 blood samples were collected between t0 and t8 h (8 mL each). […]
Plasma total folate levels were measured on the kinetic days by using Cobas autoanalyser (Elecsys®, Roche, Mannheim, Germany) at the Department of Clinical Chemistry, Saarland University Hospital, Germany. […] All plasma samples collected from the same subject (18 samples on both study visits) were prepared and measured in the same run. […]
Incremental areas under the observed concentration-time curve above baseline were calculated applying the trapezoidal rule and were expressed as nmol/L*h.

| Compound | Incremental AUC0–8 h of plasma total folate [1] | AUC(0-t) [2] [µM·h] | AUC Ratio: AUCs (6S)-5-Methyl-THF-Ca/ folic acid 2009 [3] | concentration at 0.5 h (clinical) [nM] | concentration at 1 h (clinical) [nM] | Tmax (clinical; po) [min] | Headaches reported on kinetic day 1 after intake [4] | Plasma unmetabolized folic acid levels after intake [5] | AUC Ratio: AUCs of (6S)-5-Methyl-THF-Na/ AUC folic acid 2019 ([6]; AUC0-8h of plasma (6S)-5-Methyl-THF, individual ratios, mean (SD)) | Maximum concentrations of plasma (6S)-5-Methyl-THF reached earlier compared to folic acid ([6]; difference of Tmax versus folic acid) [min] |
| --- | --- | --- | --- | --- | --- | --- | --- | --- | --- | --- |
| CN1c2c(nc(N)[nH]c2=O)NC[C@@H]1CNc1ccc(C(=O)N[C@@H](CCC(=O)O)C(=O)O)cc1 [(6S)-5-Methyl-THF-Ca, (6S)-5-Methyltetrahydrofolic acid] | 85.0 (21.9) nmol/L*h | 0.136 | 2.29 (0.76) | – | – | – | – | – | – | – |
| Nc1nc2ncc(CNc3ccc(C(=O)N[C@@H](CCC(=O)O)C(=O)O)cc3)nc2c(=O)[nH]1 [folic acid, pteroylmonoglutamic acid] | 50.3 (20.1) nmol/L*h | – | – | 2.5 | 4.7 | 30 to 60 | – | – | – | – |
| CN1c2c(nc(N)[nH]c2=O)NC[C@@H]1CNc1ccc(C(=O)N[C@@H](CCC(=O)O)C(=O)O)cc1 [(6S)-5-Methyl-THF-Na, (6S)-5-Methyltetrahydrofolic acid] | – | – | – | – | – | – | Three subjects reported headaches | below the limit of detection; also recorded: remained undetectable | 2.52 (1.02) | 60 |
